According to ChEMBL document CHEMBL1136486, “Novel 3,4-dihydroquinolin-2(1H)-one inhibitors of human glycogen phosphorylase a” (Bioorg Med Chem Lett, 2003):

How the values were obtained:
[1] = molecular target: T1, Glycogen phosphorylase, muscle form (Homo sapiens, UniProt P11217); experiment: Inhibitory concentration against recombinant human muscle glycogen phosphorylase a (HMGPa); type: single protein
T1 sequence (P11217 whole entry): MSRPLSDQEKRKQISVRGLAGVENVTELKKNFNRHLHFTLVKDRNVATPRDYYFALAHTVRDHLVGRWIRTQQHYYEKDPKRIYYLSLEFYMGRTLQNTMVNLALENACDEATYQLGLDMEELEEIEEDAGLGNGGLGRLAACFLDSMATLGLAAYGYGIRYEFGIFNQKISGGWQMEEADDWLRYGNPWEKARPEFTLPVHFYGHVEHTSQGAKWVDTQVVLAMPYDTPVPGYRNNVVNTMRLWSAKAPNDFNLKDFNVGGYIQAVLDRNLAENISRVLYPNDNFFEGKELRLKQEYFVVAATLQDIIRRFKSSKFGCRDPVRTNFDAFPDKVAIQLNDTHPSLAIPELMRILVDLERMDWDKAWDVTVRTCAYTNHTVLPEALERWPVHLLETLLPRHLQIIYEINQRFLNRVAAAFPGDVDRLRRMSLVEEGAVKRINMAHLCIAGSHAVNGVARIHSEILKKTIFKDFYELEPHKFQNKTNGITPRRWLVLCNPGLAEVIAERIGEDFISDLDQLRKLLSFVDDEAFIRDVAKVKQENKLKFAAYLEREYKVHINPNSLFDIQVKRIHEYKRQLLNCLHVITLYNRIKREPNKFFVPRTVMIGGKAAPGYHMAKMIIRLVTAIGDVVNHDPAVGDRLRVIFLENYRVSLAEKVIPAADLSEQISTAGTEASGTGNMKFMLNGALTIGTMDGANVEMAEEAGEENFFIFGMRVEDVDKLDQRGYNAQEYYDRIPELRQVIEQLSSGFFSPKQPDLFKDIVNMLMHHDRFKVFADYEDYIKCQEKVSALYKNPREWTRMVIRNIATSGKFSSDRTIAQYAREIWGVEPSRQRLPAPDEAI

[2] = molecular target: T2, Glycogen phosphorylase, liver form (Homo sapiens, UniProt P06737); experiment: Inhibitory concentration against recombinant human liver glycogen phosphorylase a (HLGPa)
T2 sequence (P06737 whole entry): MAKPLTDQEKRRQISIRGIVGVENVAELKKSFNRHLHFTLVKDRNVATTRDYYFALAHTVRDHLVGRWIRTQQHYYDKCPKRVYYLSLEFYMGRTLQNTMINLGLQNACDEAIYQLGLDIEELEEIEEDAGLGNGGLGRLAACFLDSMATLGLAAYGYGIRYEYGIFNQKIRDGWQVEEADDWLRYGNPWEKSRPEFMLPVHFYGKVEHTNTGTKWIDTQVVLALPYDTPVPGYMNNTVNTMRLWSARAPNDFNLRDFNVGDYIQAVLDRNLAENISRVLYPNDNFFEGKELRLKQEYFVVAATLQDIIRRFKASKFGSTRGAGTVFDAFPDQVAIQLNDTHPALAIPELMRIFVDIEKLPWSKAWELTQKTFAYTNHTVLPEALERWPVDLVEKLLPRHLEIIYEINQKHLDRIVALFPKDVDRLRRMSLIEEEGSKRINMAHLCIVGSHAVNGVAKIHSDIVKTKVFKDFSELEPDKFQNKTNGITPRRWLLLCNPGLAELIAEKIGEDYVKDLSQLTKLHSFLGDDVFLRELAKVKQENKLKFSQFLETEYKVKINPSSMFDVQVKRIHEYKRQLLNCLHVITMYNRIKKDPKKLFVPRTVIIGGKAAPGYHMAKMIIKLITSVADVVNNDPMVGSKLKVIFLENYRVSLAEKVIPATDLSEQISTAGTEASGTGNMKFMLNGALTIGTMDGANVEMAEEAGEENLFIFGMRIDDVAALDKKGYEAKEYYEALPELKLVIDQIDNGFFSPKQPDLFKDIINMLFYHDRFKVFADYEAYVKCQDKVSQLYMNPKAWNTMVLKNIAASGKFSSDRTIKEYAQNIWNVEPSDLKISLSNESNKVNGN

Rattus norvegicus = species on record: Rattus norvegicus; experiment: Inhibition of glucose production in glucagon-stimulated glycogenolysis in primary rat hepatocytes; type: functional; conditions: Hepatocyte

| SMILES | IC50 [1] | IC50 [2] | EC50 (Rattus norvegicus) |
| --- | --- | --- | --- |
| CN1C(=O)C(NC(=O)c2cc3cc(Br)ccc3[nH]2)Cc2ccccc21 (configuration not stated) | 73 nM | 30 nM |  |
| O=C(N[C@H]1Cc2ccccc2NC1=O)c1cc2cc(Cl)ccc2[nH]1 | 39 nM | 47 nM | 7800 nM |
| CN1C(=O)[C@H](NC(=O)c2cc3cc(Cl)ccc3[nH]2)Cc2ccccc21 | 58 nM | 61 nM | 13200 nM |
| COC(=O)c1ccc2[nH]c(C(=O)NC3Cc4ccccc4N(C)C3=O)cc2c1 (configuration not stated) | 2700 nM | 5300 nM |  |
| CN1C(=O)C(NC(=O)c2cc3ccccc3[nH]2)Cc2ccccc21 (configuration not stated) | 56 nM | 160 nM |  |
| COc1ccc2[nH]c(C(=O)NC3Cc4ccccc4N(C)C3=O)cc2c1 (configuration not stated) | 1700 nM | 1700 nM |  |
| CN1C(=O)C(NC(=O)c2cc3cccc(N)c3[nH]2)Cc2ccccc21 (configuration not stated) | 6800 nM | 1200 nM |  |
| O=C(N[C@@H]1Cc2ccccc2N(Cc2ccccn2)C1=O)c1cc2cc(Cl)ccc2[nH]1 |  | 120 nM | 14500 nM |
| Cc1ccc2[nH]c(C(=O)NC3Cc4ccccc4N(C)C3=O)cc2c1 (configuration not stated) | 98 nM | 120 nM |  |
| CN1C(=O)C(NC(=O)c2cc3cc(F)ccc3[nH]2)Cc2ccccc21 (configuration not stated) | 89 nM | 120 nM |  |
| COC(=O)c1cc2[nH]c(C(=O)NC3Cc4ccccc4N(C)C3=O)cc2cc1Cl (configuration not stated) | > 20000 nM | > 20000 nM |  |
| CN1C(=O)C(NC(=O)c2cc3cc(-c4ccccc4)ccc3[nH]2)Cc2ccccc21 (configuration not stated) | > 20000 nM | > 20000 nM |  |
| CN1C(=O)C(NC(=O)c2cc3cc(C#N)ccc3[nH]2)Cc2ccccc21 (configuration not stated) | 110 nM | 180 nM |  |
| O=C(N[C@H]1Cc2ccccc2N(Cc2ccccn2)C1=O)c1cc2cc(Cl)ccc2[nH]1 |  | 140 nM | 11600 nM |
| CCc1ccc2[nH]c(C(=O)NC3Cc4ccccc4N(C)C3=O)cc2c1 (configuration not stated) | 850 nM | 2500 nM |  |
| CN1C(=O)C(NC(=O)c2cc3cccc([N+](=O)[O-])c3[nH]2)Cc2ccccc21 (configuration not stated) | 120 nM | 300 nM |  |
| O=C(N[C@@H]1Cc2ccccc2NC1=O)c1cc2cc(Cl)ccc2[nH]1 | 14 nM | 25 nM | 1800 nM |

| SMILES | IC50 [1] | IC50 [2] | EC50 (Rattus norvegicus) |
| --- | --- | --- | --- |
| O=C(NC1Cc2ccccc2NC1=O)c1ccc(Cl)c(Cl)c1 (configuration not stated) | 2310 nM | 1370 nM |  |
| CN1C(=O)C(NC(=O)c2cc3ccc(-c4ccccc4)cc3[nH]2)Cc2ccccc21 (configuration not stated) | > 20000 nM | > 20000 nM |  |
| CN1C(=O)[C@@H](NC(=O)c2cc3cc(Cl)ccc3[nH]2)Cc2ccccc21 | 57 nM | 57 nM | 8400 nM |
| CN1C(=O)C(NC(=O)c2cc3cc(C(F)(F)F)ccc3[nH]2)Cc2ccccc21 (configuration not stated) | 550 nM | 1500 nM |  |
| CN1C(=O)C(NC(=O)c2cc3cc(Cl)ccc3[nH]2)CCc2ccccc21 (configuration not stated) | 105 nM | 305 nM |  |
| COC(=O)c1c(Cl)ccc2[nH]c(C(=O)NC3Cc4ccccc4N(C)C3=O)cc12 (configuration not stated) | > 20000 nM | > 20000 nM |  |
| O=C(NC1CCc2ccccc2NC1=O)c1cc2ccccc2[nH]1 (configuration not stated) | 2440 nM | 1060 nM |  |
| CN1C(=O)C(NC(=O)c2cc3cc(Cl)cc(F)c3[nH]2)Cc2ccccc21 (configuration not stated) | 55 nM | 83 nM |  |
| CN1C(=O)C(NC(=O)c2cc3c(Cl)cccc3[nH]2)Cc2ccccc21 (configuration not stated) | 2100 nM | 1600 nM |  |
| CN1C(=O)C(NC(=O)c2cc3ccc(Cl)cc3[nH]2)Cc2ccccc21 (configuration not stated) | 69 nM | 99 nM |  |
| Cc1n[nH]c(CN2C(=O)C(NC(=O)c3cc4cc(Cl)ccc4[nH]3)Cc3ccccc32)n1 (racemic) |  | 140 nM | 1200 nM |
| O=C(NC1Cc2ccccc2N(Cc2cccnc2)C1=O)c1cc2cc(Cl)ccc2[nH]1 (racemic) |  | 130 nM | 16600 nM |
| O=C(NC1Cc2ccccc2N(Cc2ccccn2)C1=O)c1cc2cc(Cl)ccc2[nH]1 (racemic) |  | 110 nM | 20700 nM |
| O=C(NC1CCc2ccccc2NC1=O)c1ccc(Cl)c(Cl)c1 (racemic) | 21700 nM | 6400 nM |  |
| O=C(NC1Cc2ccccc2NC1=O)c1cc2cc(Cl)ccc2[nH]1 (racemic) | 38 nM | 44 nM |  |
| CN1C(=O)C(NC(=O)c2cc3cc(Cl)ccc3[nH]2)Cc2ccccc21 (racemic) | 32 nM | 25 nM |  |
| O=C(NC1Cc2ccccc2N(Cc2nnc(-c3ncc[nH]3)[nH]2)C1=O)c1cc2cc(Cl)ccc2[nH]1 (racemic) |  | 160 nM | 3700 nM |
